Measurements reported in ChEMBL document CHEMBL1127614, “2,6-Disubstituted aryl carboxylic acids, leaving groups "par excellence" for benzisothiazolone inhibitors of human leukocyte elastase” (J Med Chem, 1994).

biological target: T1, Neutrophil elastase (Homo sapiens, UniProt P08246); assay: In vitro inhibition constant of human leukocyte elastase.
T1 sequence (P08246 whole entry): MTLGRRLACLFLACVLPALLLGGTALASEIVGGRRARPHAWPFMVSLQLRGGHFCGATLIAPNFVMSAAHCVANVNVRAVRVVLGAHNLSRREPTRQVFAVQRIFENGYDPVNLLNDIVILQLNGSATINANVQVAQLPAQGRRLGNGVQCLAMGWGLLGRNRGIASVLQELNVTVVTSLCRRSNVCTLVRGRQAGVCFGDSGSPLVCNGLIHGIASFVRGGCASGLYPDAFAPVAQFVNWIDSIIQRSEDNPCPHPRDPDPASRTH

| Structure (SMILES) | Ki |
| --- | --- |
| O=C(OCN1C(=O)c2ccccc2S1(=O)=O)c1ccccc1 | 31 nM |
| CC(=O)OCN1C(=O)c2ccccc2S1(=O)=O | 102 nM |
| O=C(OCN1C(=O)c2ccccc2S1(=O)=O)c1c(C(F)(F)F)cccc1C(F)(F)F | 37 nM |
| CC(=O)Nc1cccc(Cl)c1C(=O)OCN1C(=O)c2ccccc2S1(=O)=O | 18 nM |
| COc1cccc(OC)c1C(=O)OCN1C(=O)c2ccccc2S1(=O)=O | 8 nM |
| O=C(OCN1C(=O)c2ccccc2S1(=O)=O)c1c(Br)cccc1Br | 8.5 nM |
| O=C(OCN1C(=O)c2ccccc2S1(=O)=O)c1c(F)cccc1F | 8 nM |
| Cc1cccc(C)c1C(=O)OCN1C(=O)c2ccccc2S1(=O)=O | 4 nM |
| CC(C)(C)c1cccc2c1C(=O)N(COC(=O)c1c(Cl)cccc1Cl)S2(=O)=O | 26 nM |

Compounds with a lower Ki, results first:

| Ki | Structure (SMILES) |
| --- | --- |
| 2 nM | Cc1cccc2c1C(=O)N(COC(=O)c1c(Cl)cccc1Cl)S2(=O)=O |
| 1 nM | O=C(OCN1C(=O)c2c(-c3ccccc3)cccc2S1(=O)=O)c1c(Cl)cccc1Cl |
| 0.17 nM | CCc1cccc2c1C(=O)N(COC(=O)c1c(Cl)cccc1Cl)S2(=O)=O |
| 0.06 nM | CCC(C)c1cccc2c1C(=O)N(COC(=O)c1c(Cl)cccc1Cl)S2(=O)=O (stereo not given) |
| 0.03 nM | CC(C)c1cccc2c1C(=O)N(COC(=O)c1c(Cl)cccc1Cl)S2(=O)=O |

test system: Cricetinae gen. sp.; assay: In Vivo evaluation of the Compound for the percentage inhibition of HLE at 60 mg/kg dose by intravenous administration; format: functional, Cricetulus griseus

| Structure (SMILES) | inhibition in vivo at 60 mg/kg |
| --- | --- |
| CC(C)c1cccc2c1C(=O)N(COC(=O)c1c(Cl)cccc1Cl)S2(=O)=O | 47% |
